Measured values: US6391304B1, “Peptides derived from the ENV gene of the feline immunodeficiency virus and their applications” (Centre National de la Recherche Scientifique, priority 1997, dated 2002)
“And” between values parts separate entries of the source, which are not always exact repeats. Equal entries are not always repeated. Ends that are not written are not given here.

Tests used:
[1] = tested on: immobilized peptide (SU2, SU5, TM2 or TM3-19); experiment: ELISA anti-peptide titre during the immunization of cats; type: in vivo; conditions: individual cats immunized with KLH-coupled peptide; absorbance at 405 nm greater than 0.1
Procedure: Groups of four cats 4½ months old are immunized subcutaneously with 120 μg of FIV peptide (approximately 250 μg of peptide coupled to KLH (keyhole limpet haemocyanin)), emulsified in complete Freund's adjuvant.
Four repeat immunizations are administered subcutaneously in an incomplete Freund's adjuvant, generally at intervals of 2-3 weeks, although the interval between the last 2 […] was 7 weeks.
(§1) The production on of antibodies is evaluated before the test by means of an ELISA using an immobilized peptide (SU2, SU5, TM2 or TM3-19) and immunoprecipitation. After the test, the seroconversion is monitored by an ELISA using immobilized envelope peptides and a recombinant FTV capsid protein.
(§2) The ELISA with the immobilized envelope peptides corresponding to the immunogenic domains SU2 and TM2 and with the immobilized recombinant p25 protein (FIV capsid protein) is carried out as described in Avraméas A. et al. (Res. Virol., 1993, 144, 209-218).
(§3) Microplates (Immunolon II, Dynatech) are coated with 0.5 μg/well for the peptides and with 0.1 μg/well for the p25 protein.
(§4) The tests are carried out in duplicate and the results are expressed as average values.
The anti-peptide titres before the test are expressed as the logarithm of the inverse of the last dilution of serum which gives an absorbance (at 405 nm) of greater than 0.1.

[2] = tested on: envelope glycoproteins of the Petaluma strain; experiment: Immunoprecipitation of envelope glycoproteins by sera (metabolically labelled FL-4 cells); type: in vivo, FIV; conditions: lysates of chronically infected FL-4 cells; groups of four cats
Description: (§5) The sera collected on the day of the test (at a dilution of 1/40) are used to immunoprecipitate the envelope glycoproteins derived from the metabolically labelled FL-4 cells and feline mononuclear cells (PBM cells) infected with the FIV Wo strain, as described in G. Pancino et al. (Virology, 1995, 206, 796-806).
The recognition of the envelope glycoproteins is estimated by immunoprecipitation of the biosynthetically labelled envelope glycoprotein with sera collected on the day of the test, as summarized in Table I.

FIV Wo = experiment: Test of reduction of viral infectivity in mitogen-activated feline PBM cells; type: cell-based; conditions: PBMC cells activated with a mitogen; serum dilution 1/5
Procedure: For the test of reduction of the viral infectivity, serial dilutions ( 1/50, 1/100, 1/200 and 1/400) of a stock suspension of Wo isolate and a single dilution of serum (⅕) are prepared in a complete RPMI medium containing 50 μM of 2-ME and 10 mM of HEPES.
The feline serum is mixed with an equal volume of the serial dilutions of virus and incubated in a final volume of 100 μl for one hour at 37° C.
The concentration of PBM cells activated with a mitogen is adjusted to 4×10^6/ ml in a complete RPMI medium comprising 2-ME, HEPES and 200 U/ml of recombinant human IL-2. 0.1 ml of cell suspension (4×10^5 cells) is added to the tubes.
After incubation overnight, the viral inoculum is recovered by washing the cells twice with 0.5 ml of complete RPMI medium.
The cells are then resuspended fin 0.2 ml of feline serum diluted in a complete RDMI medium comprising 2-ME, HEPES and 100 U/ml of IL-2, and then transferred into the wells of 96-well microtitration plates.
Half of the medium is replaced four days after the infection.
10 μl aliquots are recovered 7 days after the infection, for an analysis of the reverse transcriptase activity.
Given that the Wo strain was not adapted by passage on CrFK cells, the influence of the antibodies was studied on the infection in feline PBMC cells.

[3] = tested on: envelope glycoproteins of the Wo strain; experiment: Immunoprecipitation of envelope glycoproteins by sera (infected PBM cells); type: in vivo; conditions: PBM cell lysates after acute infection with FIV Wo; group of four cats
Description: as §5
Given that the TM3-19 peptide, deduced from the Env sequence of the FIV Wo strain, comprises 4 different residues out of 19, relative to the Petaluma sequence, the capacity to immunoprecipitate sera before the test of the cats immunized with the TM3-19 peptide was tested against the envelope glycoproteins of the Wo strain, obtained from PBM cell lysates after acute infection with the FIV Wo strain.

FIV Wo isolate = experiment: Plasmatic viraemia by isolation of the virus in PBM cell culture; type: in vivo, cats
Description: (§6) The cats are subjected to a virulence test, one week after the final immunization, by means of an intraperitoneal inoculation of 10 CID50 of FIV Wo isolate, one CID50 corresponding to the dose capable of infecting 50% of the cats.
The plasmatic viraemia is quantified by culturing PBM cells (Ho D. D. et a., N. Engl. J. Med., 1989, 321, 1621-1625).
The infection is estimated by determining the p25 by ELISA (Petcheck, IDEXX) in culture supernatants, obtained 14 and 21 days after the inoculation of different volumes of plasma (0.2, 2, 10, 40, 200 or 1000 μl). The final plasmatic dilution giving a positive culture is considered as the limit point.
The plasmatic viraemia is expressed as TCDID50/ml of plasma (→doses capable of infecting 50% of the tissue cultures).
For the cats immunized with the TM3-19 peptide and the control cats, the plasmatic viral load is evaluated 3 weeks after the test by isolating the virus.

[4] = tested on: viral components (SU2 and TM2 peptides, recombinant capsid protein); experiment: Antiviral humoral response after the virulence test (ELISA with viral components); type: in vivo; conditions: in comparison with the control cats
Procedure: as §1, §2
(§7) After the test, the seroconversion against the envelope peptides and the p25 protein is evaluated at serum dilutions of 1/25 and 1/100, respectively.
After testing with the FIV Wo strain, most of the cats show a humoral response with respect to the viral components, as illustrated by the ELISA with the SU2 and TM2 peptides, derived from the external and transmembrane glycoproteins, respectively, and the recombinant capsid protein.

SU2 envelope peptide = experiment: Seroconversion ELISA after the virulence test, SU2 peptide; type: in vivo, cats
Procedure: as §6, §1, §2, §3, §4, §7
The absorbance values (at 405 nm) are corrected by subtraction of the absorbance values obtained by binding with an immobilized control peptide.
The tests are normalized with reference to the binding of a mixture of serum from cats infected with FIV with a peptide representing the immunodominant domain of the FIV transmembrane glycoprotein (TM2) (Avraméas A. et al., Res. Virol., 1993, 144, 209-218).

[5] = ELISA, seral dilution 1/25, individual cats

SU2: peptide of the SU2 domain of the FIV surface envelope glycoprotein, SEQ ID NO: 2, used as immunogen (RAISSWKQRNRWEWRPD)
Anti-peptide titre, 1st injection [1]: 4.40 logarithm of the inverse of the last dilution of serum and 5.31 logarithm of the inverse of the last dilution of serum and 4.71 logarithm of the inverse of the last dilution of serum and 5.01 logarithm of the inverse of the last dilution of serum | Anti-peptide titre, 2nd injection [1]: 4.71 logarithm of the inverse of the last dilution of serum and 5.01 logarithm of the inverse of the last dilution of serum (2×) and 5.31 logarithm of the inverse of the last dilution of serum | Anti-peptide titre, Day of the test [1]: 5.31 logarithm of the inverse of the last dilution of serum and 4.71 logarithm of the inverse of the last dilution of serum and 5.61 logarithm of the inverse of the last dilution of serum and 5.01 logarithm of the inverse of the last dilution of serum | cats whose sera immunoprecipitate the envelope glycoproteins of the Petaluma strain [2]: 3 of the 4 cats (324, 325 and 327) | effect of sera on infection with FIV Wo (reduction of infectivity) (FIV Wo): do not modify the infection

KKGLQQLQEWEDWVGWIGN [TM3-19, 19-amino-acid fragment of the TM3 domain of the FIV Wo Env transmembrane glycoprotein (759-777)]
cats whose sera precipitate the envelope protein of the Wo strain [3]: only the sera of 2 cats (346, 347) | Anti-peptide titre, 1st injection [1]: 4.71 logarithm of the inverse of the last dilution of serum and 5.01 logarithm of the inverse of the last dilution of serum and 5.31 logarithm of the inverse of the last dilution of serum | Anti-peptide titre, 2nd injection [1]: 4.71 logarithm of the inverse of the last dilution of serum and 5.31 logarithm of the inverse of the last dilution of serum and 5.01 logarithm of the inverse of the last dilution of serum and 3.20 logarithm of the inverse of the last dilution of serum | Anti-peptide titre, Day of the test [1]: 4.40 logarithm of the inverse of the last dilution of serum (3×) and 4.71 logarithm of the inverse of the last dilution of serum | Plasmatic viraemia, PBMC culture (FIV Wo isolate; 3 weeks after the test with 10 CID50 of FIV Wo, individual cats): 1 TCID50/ml of plasma (3×) and 1 × 10^2 TCID50/ml of plasma | reduction in the level of infectious virus in the plasma (FIV Wo isolate; three-quarters of the cats, 3 weeks after the test, versus control cats): about 3 logs | development of an antiviral humoral response after the virulence test [4]: weaker and retarded in 3 cats (346, 348, 349) | antibody response with respect to the SU2 peptide (SU2 envelope peptide; 5 weeks after the test): none of the cats immunized with the TM3-19 peptide developed a detectable antibody response | Binding of the sera to SU2, 3 weeks after the virulence test (SU2 envelope peptide; [5]): 0 optical density | Binding of the sera to SU2, 4 weeks after the virulence test (SU2 envelope peptide; [5]): 0 optical density | Binding of the sera to SU2, 5 weeks after the virulence test (SU2 envelope peptide; [5]): 0 optical density | effect of sera on infection with FIV Wo (reduction of infectivity) (FIV Wo): do not modify the infection
